Numbers after ± are expanded uncertainties.
Experiments:
[1] = xn = mol fraction of the nth substance listed; conditions: 1800 kPa, Liquid, Vibrating tube method
[2] = wn = mass fraction of the nth substance listed; conditions: 1800 kPa, Liquid, Falling or rolling sphere viscometry
[3] = molar heat capacity at constant pressure; wn = mass fraction of the nth substance listed; conditions: 1800 kPa, Liquid, Small sample (50 mg) DSC

O=[N+]([O-])[O-].[Li+] [lithium nitrate] + N
Conditions	mass density [kg/m3]	molar heat capacity at constant pressure [J/K/mol]	viscosity [mPa·s]
[1], 293.15 K, x2 = 0.3501	1188.8 ± 0.8	–	–
[1], 293.15 K, x2 = 0.3988	1134.2 ± 0.8	–	–
[1], 293.15 K, x2 = 0.4499	1078.1 ± 0.8	–	–
[1], 293.15 K, x2 = 0.5	1030 ± 0.8	–	–
[1], 293.15 K, x2 = 0.55	983.8 ± 0.7	–	–
[1], 293.15 K, x2 = 0.5999	939 ± 0.7	–	–
[1], 293.15 K, x2 = 0.6505	896.8 ± 0.7	–	–
[1], 303.15 K, x2 = 0.3501	1181.2 ± 0.8	–	–
[1], 303.15 K, x2 = 0.3988	1126.6 ± 0.8	–	–
[1], 303.15 K, x2 = 0.4499	1070.3 ± 0.8	–	–
[1], 303.15 K, x2 = 0.5	1022.1 ± 0.8	–	–
[1], 303.15 K, x2 = 0.55	975.4 ± 0.7	–	–
[1], 303.15 K, x2 = 0.5999	929.8 ± 0.7	–	–
[1], 303.15 K, x2 = 0.6505	886.9 ± 0.7	–	–
[1], 313.15 K, x2 = 0.3501	1173.8 ± 0.8	–	–
[1], 313.15 K, x2 = 0.3988	1119 ± 0.8	–	–
[1], 313.15 K, x2 = 0.4499	1062.6 ± 0.8	–	–
[1], 313.15 K, x2 = 0.5	1014.1 ± 0.8	–	–
[1], 313.15 K, x2 = 0.55	966.8 ± 0.7	–	–
[1], 313.15 K, x2 = 0.5999	920.6 ± 0.7	–	–
[1], 313.15 K, x2 = 0.6505	876.7 ± 0.7	–	–
[1], 323.15 K, x2 = 0.3501	1166.6 ± 0.8	–	–
[1], 323.15 K, x2 = 0.3988	1111.5 ± 0.8	–	–
[1], 323.15 K, x2 = 0.4499	1055.1 ± 0.8	–	–
[1], 323.15 K, x2 = 0.5	1006.1 ± 0.8	–	–
[1], 323.15 K, x2 = 0.55	958.1 ± 0.7	–	–
[1], 323.15 K, x2 = 0.5999	911.2 ± 0.7	–	–
[1], 323.15 K, x2 = 0.6505	866.6 ± 0.7	–	–
[1], 333.15 K, x2 = 0.3501	1159.7 ± 0.8	–	–
[1], 333.15 K, x2 = 0.3988	1104.1 ± 0.8	–	–
[1], 333.15 K, x2 = 0.4499	1047.5 ± 0.8	–	–
[1], 333.15 K, x2 = 0.5	998 ± 0.8	–	–
[1], 333.15 K, x2 = 0.55	949.4 ± 0.7	–	–
[1], 333.15 K, x2 = 0.5999	901.6 ± 0.7	–	–
[1], 343.15 K, x2 = 0.3501	1153.1 ± 0.8	–	–
[1], 343.15 K, x2 = 0.3988	1096.9 ± 0.8	–	–
[1], 343.15 K, x2 = 0.4499	1040 ± 0.8	–	–
[1], 343.15 K, x2 = 0.5	990.1 ± 0.8	–	–
[1], 343.15 K, x2 = 0.55	940.4 ± 0.8	–	–
[1], 353.15 K, x2 = 0.3501	1146.9 ± 0.8	–	–
[1], 353.15 K, x2 = 0.3988	1090.2 ± 0.8	–	–
[1], 353.15 K, x2 = 0.4499	1032.8 ± 0.8	–	–
[1], 353.15 K, x2 = 0.5	982.1 ± 0.8	–	–
[2], 293.2 K, w2 = 0.4	–	–	22.7 ± 0.5
[2], 293.2 K, w2 = 0.4997	–	–	7.1 ± 0.4
[2], 298.2 K, w2 = 0.4	–	–	18.7 ± 0.5
[2], 298.2 K, w2 = 0.4997	–	–	6.1 ± 0.4
[2], 303.2 K, w2 = 0.4	–	–	15.5 ± 0.4
[2], 303.2 K, w2 = 0.4997	–	–	5.3 ± 0.4
[2], 308.2 K, w2 = 0.4	–	–	13 ± 0.4
[2], 308.2 K, w2 = 0.4997	–	–	4.7 ± 0.4
[2], 313.2 K, w2 = 0.4	–	–	11 ± 0.4
[2], 313.2 K, w2 = 0.4997	–	–	4.1 ± 0.4
[2], 318.2 K, w2 = 0.4	–	–	9.3 ± 0.4
[2], 318.2 K, w2 = 0.4997	–	–	3.6 ± 0.4
[2], 323.2 K, w2 = 0.3	–	–	18.6 ± 0.4
[2], 323.2 K, w2 = 0.4	–	–	8 ± 0.4
[2], 323.2 K, w2 = 0.4997	–	–	3.3 ± 0.4
[2], 328.1 K, w2 = 0.4997	–	–	2.9 ± 0.4
[2], 328.2 K, w2 = 0.3	–	–	15.9 ± 0.4
[2], 328.2 K, w2 = 0.4	–	–	6.9 ± 0.4
[2], 333.1 K, w2 = 0.4997	–	–	2.6 ± 0.4
[2], 333.2 K, w2 = 0.3	–	–	13.8 ± 0.4
[2], 333.2 K, w2 = 0.4	–	–	6.1 ± 0.4
[2], 338 K, w2 = 0.4997	–	–	2.4 ± 0.4
[2], 338.1 K, w2 = 0.3	–	–	11.9 ± 0.4
[2], 338.1 K, w2 = 0.4	–	–	5.4 ± 0.4
[2], 343 K, w2 = 0.4997	–	–	2.2 ± 0.4
[2], 343.1 K, w2 = 0.3	–	–	10.9 ± 0.4
[2], 343.1 K, w2 = 0.4	–	–	4.8 ± 0.4
[2], 348.1 K, w2 = 0.3	–	–	9 ± 0.4
[2], 348.2 K, w2 = 0.4	–	–	4.3 ± 0.4
[2], 353.1 K, w2 = 0.4	–	–	3.8 ± 0.4
[2], 353.2 K, w2 = 0.3	–	–	7.9 ± 0.4
[3], 312.65 K, w2 = 0.5	–	85.88 ± 1.3	–
[3], 312.67 K, w2 = 0.3501	–	84.48 ± 1.3	–
[3], 312.67 K, w2 = 0.4003	–	84.65 ± 1.3	–
[3], 312.67 K, w2 = 0.4499	–	85.21 ± 1.3	–
[3], 312.67 K, w2 = 0.5497	–	84.75 ± 1.3	–
[3], 322.56 K, w2 = 0.5	–	86.67 ± 1.3	–
[3], 322.57 K, w2 = 0.3501	–	85.61 ± 1.3	–
[3], 322.58 K, w2 = 0.4003	–	85.8 ± 1.3	–
[3], 322.58 K, w2 = 0.4499	–	86.2 ± 1.3	–
[3], 322.58 K, w2 = 0.5497	–	85.55 ± 1.3	–
[3], 332.46 K, w2 = 0.5	–	87.54 ± 1.4	–
[3], 332.48 K, w2 = 0.3501	–	86.65 ± 1.3	–
[3], 332.48 K, w2 = 0.4499	–	87.22 ± 1.3	–
[3], 332.48 K, w2 = 0.5497	–	86.09 ± 1.3	–
[3], 332.49 K, w2 = 0.4003	–	86.7 ± 1.3	–
[3], 342.37 K, w2 = 0.5	–	88.33 ± 1.4	–
[3], 342.38 K, w2 = 0.3501	–	87.52 ± 1.4	–
[3], 342.38 K, w2 = 0.5497	–	86.97 ± 1.3	–
[3], 342.39 K, w2 = 0.4003	–	87.51 ± 1.4	–
[3], 342.39 K, w2 = 0.4499	–	88.09 ± 1.4	–
[3], 352.29 K, w2 = 0.3501	–	88.22 ± 1.4	–
[3], 352.29 K, w2 = 0.4003	–	88.07 ± 1.4	–
[3], 352.31 K, w2 = 0.4499	–	88.59 ± 1.4	–

Reference: the NIST ThermoML archive (doi:10.1021/je8003035)
